Laboratory results published in patent publication US8222247B2, “Modulators of glucocorticoid receptor, AP-1, and/or NF-kappabeta activity and use thereof” (Bristol-Myers Squibb Company, priority 2006, dated 2012).

Target: T1, human glucocorticoid receptor (Homo sapiens, UniProt P04150)
T1 construct: purified human recombinant full-length glucocorticoid receptor (2 nM); purchased Invitrogen Part #2893
T1 sequence (P04150 1-777): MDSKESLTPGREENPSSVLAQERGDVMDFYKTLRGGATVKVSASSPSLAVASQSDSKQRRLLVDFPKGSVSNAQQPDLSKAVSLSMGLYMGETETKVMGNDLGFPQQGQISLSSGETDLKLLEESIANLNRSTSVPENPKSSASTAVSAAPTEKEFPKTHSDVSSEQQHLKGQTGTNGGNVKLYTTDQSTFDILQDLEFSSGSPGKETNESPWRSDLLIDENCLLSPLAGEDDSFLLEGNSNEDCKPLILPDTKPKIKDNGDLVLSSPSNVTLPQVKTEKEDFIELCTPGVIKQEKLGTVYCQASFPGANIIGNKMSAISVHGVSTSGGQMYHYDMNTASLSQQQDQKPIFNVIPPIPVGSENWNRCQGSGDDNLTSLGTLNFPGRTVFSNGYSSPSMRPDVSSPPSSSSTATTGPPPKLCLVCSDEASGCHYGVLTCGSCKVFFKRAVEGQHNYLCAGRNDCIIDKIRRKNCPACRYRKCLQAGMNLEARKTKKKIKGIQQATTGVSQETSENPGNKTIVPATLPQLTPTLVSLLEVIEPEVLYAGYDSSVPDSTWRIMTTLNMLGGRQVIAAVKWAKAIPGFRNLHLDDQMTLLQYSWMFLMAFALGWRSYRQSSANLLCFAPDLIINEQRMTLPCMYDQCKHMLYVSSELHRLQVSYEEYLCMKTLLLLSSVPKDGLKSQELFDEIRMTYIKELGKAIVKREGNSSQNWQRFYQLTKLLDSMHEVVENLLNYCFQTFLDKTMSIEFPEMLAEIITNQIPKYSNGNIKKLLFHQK
Test: Glucocorticoid Receptor Binding Assay (I), fluorescence polarization competitor kit
Settings: purified human recombinant full-length GR, Fluormone GS Red
Protocol: Glucocorticoid Receptor Binding Assay (I)^a
In order to assess the affinity of test compounds for the human glucocorticoid receptor, a commercially available kit was used (Glucocorticoid Receptor Competitor Assay Kit, Invitrogen Part #2893). Briefly, purified human recombinant full-length glucocorticoid receptor (2 nM) was mixed with fluorescently labeled glucocorticoid (1 nM Fluormone GS Red) in the presence or absence of test compound. After two hour incubation at room temperature in the dark, the fluorescence polarization (FP) of the samples was measured. The FP of a mixture of receptor, fluorescent probe (i.e. Fluormone GS Red) and 5 μM dexamethasone represented background fluorescence or 100% inhibition, whereas, the FP of the mixture without dexamethasone (but in the presence of vehicle) was taken to be 100% binding. The percentage inhibition of test compounds were then compared to the sample with 5 μM dexamethasone and expressed as % relative binding activity with dexamethasone being 100% and no inhibition is 0%. Test compounds were analyzed in the concentration range from 8.5E-05 μM to 5 μM.

Ki | Structure (SMILES)
4.73 nM | C[C@H](C(=O)Nc1nncs1)[C@@H](c1ccccc1)c1ccc(-c2ccc(C(=O)N(C)C)cc2)s1 [Example 137, N,N-dimethyl-4-(5-((1S,2S)-2-methyl-3-oxo-1-phenyl-3-(1,3,4-thiadiazol-2-ylamino)propyl)-2-thienyl)benzamide]
1.14 nM | CCN(C)C(=O)c1ccc(-c2ccc(C(c3cc(F)cc(F)c3)C(C)(C)C(=O)Nc3nncs3)s2)cc1 (stereo not drawn) [Example 92, 4-(5-(1-(3,5-difluorophenyl)-2,2-dimethyl-3-oxo-3-(1,3,4-thiadiazol-2-ylamino)propyl)-2-thienyl)-N-ethyl-N-methylbenzamide]
5.75 nM | COc1ccc(-c2ccc(C(c3cccc(F)c3)C(C)(C)C(=O)Nc3nncs3)s2)cc1 (stereo not drawn) [Example 35, 3-(3-fluorophenyl)-3-(5-(4-methoxyphenyl)-2-thienyl)-2,2-dimethyl-N-1,3,4-thiadiazol-2-ylpropanamide]
7.69 nM | CC(C)Oc1ccc(-c2ccc(C(c3ccccc3)C(C)(C)C(=O)Nc3nncs3)cn2)cc1F (stereo not drawn) [Example 29, 3-(6-(3-fluoro-4-isopropoxyphenyl)-3-pyridinyl)-2,2-dimethyl-3-phenyl-N-1,3,4-thiadiazol-2-ylpropanamide]
1.03 nM | CCN(CC)C(=O)c1ccc(-c2ccc([C@H](c3cccc(F)c3)C(C)(C)C(=O)Nc3nncs3)s2)cc1 [Example 69, N,N-diethyl-4-(5-((1R)-1-(3-fluorophenyl)-2,2-dimethyl-3-oxo-3-(1,3,4-thiadiazol-2-ylamino)propyl)-2-thienyl)benzamide]
4.59 nM | CN(C)C(=O)c1ccc(-c2ccc(C(c3cc(F)cc(F)c3)C(C)(C)C(=O)Nc3nncs3)s2)cc1Cl (stereo not drawn) [Example 91, 2-chloro-4-(5-(1-(3,5-difluorophenyl)-2,2-dimethyl-3-oxo-3-(1,3,4-thiadiazol-2-ylamino)propyl)-2-thienyl)-N,N-dimethylbenzamide]
2.39 nM | CC(C)(C(=O)Nc1nncs1)[C@@H](c1cccc(F)c1)c1ccc(Br)s1 [Example 57, (3R)-3-(5-bromo-2-thienyl)-3-(3-fluorophenyl)-2,2-dimethyl-N-1,3,4-thiadiazol-2-ylpropanamide]
29.8 nM | CCCN(CCC)C(=O)c1ccc(-c2ccc([C@H](c3cccc(F)c3)C(C)(C)C(=O)Nc3nncs3)s2)cc1 [Example 72, 4-(5-((1R)-1-(3-fluorophenyl)-2,2-dimethyl-3-oxo-3-(1,3,4-thiadiazol-2-ylamino)propyl)-2-thienyl)-N,N-dipropylbenzamide]
3.66 nM | CC(C)(C(=O)Nc1nncs1)C(c1ccccc1)c1ccc(Br)s1 (stereo not drawn) [Example 3, -(5-bromo-2-thienyl)-2,2-dimethyl-3-phenyl-N-1,3,4-thiadiazol-2-ylpropanamide]
7.16 nM | C[C@H](C(=O)Nc1nncs1)[C@@H](c1cccc(F)c1)c1ccc(-c2ccc(C(=O)N(C)C)c(Cl)c2)s1 [Example 123, 2-chloro-4-(5-((1S,2S)-1-(3-fluorophenyl)-2-methyl-3-oxo-3-(1,3,4-thiadiazol-2-ylamino)propyl)-2-thienyl)-N,N-dimethylbenzamide]

Continued, molecule first:

Structure (SMILES) | Ki
CN(C)C(=O)c1ccc(-c2ccc(C(c3cccc(F)c3)C(C)(C)C(=O)Nc3nncs3)s2)cc1 (stereo not drawn) [Example 36, 4-(5-(1-(3-fluorophenyl)-2,2-dimethyl-3-oxo-3-(1,3,4-thiadiazol-2-ylamino)propyl)-2-thienyl)-N,N-dimethylbenzamide] | 1.46 nM
C[C@H](C(=O)Nc1nncs1)[C@@H](c1ccccc1)c1ccc(Br)s1 [Example 133, (2S,3S)-3-(5-bromo-2-thienyl)-2-methyl-3-phenyl-N-1,3,4-thiadiazol-2-ylpropanamide] | 4.85 nM
C[C@H](C(=O)Nc1nncs1)[C@H](c1cccc(F)c1)c1ccc(-c2ccc(C(=O)N3CCOCC3)c(Cl)c2)s1 [Example 127, (2S,3R)-3-(5-(3-chloro-4-(4-morpholinylcarbonyl)phenyl)-2-thienyl)-3-(3-fluorophenyl)-2-methyl-N-1,3,4-thiadiazol-2-ylpropanamide] | 148 nM
CCN(CC)C(=O)c1ccc(-c2ccc(C(c3ccccc3)C(C)(C)C(=O)Nc3nncs3)s2)cc1 (stereo not drawn) [Example 49, 4-(5-(2,2-dimethyl-3-oxo-1-phenyl-3-(1,3,4-thiadiazol-2-ylamino)propyl)-2-thienyl)-N,N-diethylbenzamide] | 3.58 nM
CC(C(=O)Nc1nncs1)C(c1cccc(F)c1)c1ccc(Br)s1 (mixture of isomers) [Example 93, 3-(5-bromo-2-thienyl)-3-(3-fluorophenyl)-2-methyl-N-1,3,4-thiadiazol-2-ylpropanamide] | 2.79 nM
CC(C)(C(=O)Nc1nncs1)[C@H](c1cccc(F)c1)c1ccc(-c2ccc(C(=O)N3CCOCC3)cc2)s1 [Example 59, (3S)-3-(3-fluorophenyl)-2,2-dimethyl-3-(5-(4-(4-morpholinylcarbonyl)phenyl)-2-thienyl)-N-1,3,4-thiadiazol-2-ylpropanamide] | 66.9 nM
C[C@H](C(=O)Nc1nncs1)[C@@H](c1cccc(F)c1)c1ccc(Br)s1 [Example 94, (2S,3S)-3-(5-bromo-2-thienyl)-3-(3-fluorophenyl)-2-methyl-N-1,3,4-thiadiazol-2-ylpropanamide] | 4.11 nM
CC(C(=O)Nc1nncs1)C(c1ccccc1)c1ccc(-c2ccc(C(=O)N(C)C)cc2)s1 (single isomer, unassigned) [Example 139, N,N-dimethyl-4-(5-(2-methyl-3-oxo-1-phenyl-3-(1,3,4-thiadiazol-2-ylamino)propyl)-2-thienyl)benzamide] | 259 nM
CC(C(=O)Nc1nncs1)C(c1ccccc1)c1ccc(-c2ccc(C(=O)N(C)C)cc2)s1 (single isomer, unassigned) [Example 138, N,N-dimethyl-4-(5-(2-methyl-3-oxo-1-phenyl-3-(1,3,4-thiadiazol-2-ylamino)propyl)-2-thienyl)benzamide] | 360 nM
CC(C)(C(=O)Nc1nncs1)[C@@H](c1cccc(F)c1)c1ccc(-c2ccc(C(=O)O)c(F)c2)s1 [Example 78, 2-fluoro-4-(5-((1R)-1-(3-fluorophenyl)-2,2-dimethyl-3-oxo-3-(1,3,4-thiadiazol-2-ylamino)propyl)-2-thienyl)benzoic acid] | 24.5 nM
C[C@@H](C(=O)Nc1nncs1)[C@H](c1cccc(F)c1)c1ccc(Br)s1 [Example 97, (2R,3R)-3-(5-bromo-2-thienyl)-3-(3-fluorophenyl)-2-methyl-N-1,3,4-thiadiazol-2-ylpropanamide] | 1.96 nM
CCN(C)C(=O)c1ccc(-c2ccc([C@@H](c3ccccc3)[C@@H](C)C(=O)Nc3nncs3)s2)cc1 (stereo in doubt) [Example 154, N-ethyl-N-methyl-4-(5-((1R,2R)-2-methyl-3-oxo-1-phenyl-3-(1,3,4-thiadiazol-2-ylamino)propyl)-2-thienyl)benzamide] | 2.15 nM
C[C@H](C(=O)Nc1nncs1)[C@H](c1cccc(F)c1)c1ccc(Br)s1 [Example 95, (2S,3R)-3-(5-bromo-2-thienyl)-3-(3-fluorophenyl)-2-methyl-N-1,3,4-thiadiazol-2-ylpropanamide] | 0.76 nM
CC(C)(C(=O)Nc1nncs1)[C@H](c1cccc(F)c1)c1ccc(-c2ccc(C(=O)O)c(F)c2)s1 [Example 63, 2-fluoro-4-(5-((1S)-1-(3-fluorophenyl)-2,2-dimethyl-3-oxo-3-(1,3,4-thiadiazol-2-ylamino)propyl)-2-thienyl)benzoic acid] | 565 nM
CC(C)(C(=O)Nc1nncs1)C(c1cc(F)cc(F)c1)c1ccc(Br)s1 (stereo not drawn) [Example 19, 3-(5-bromo-2-thienyl)-3-(3,5-difluorophenyl)-2,2-dimethyl-N-1,3,4-thiadiazol-2-ylpropanamide] | 2.93 nM
CCN(C)C(=O)c1ccc(-c2ccc([C@H](c3cccc(F)c3)[C@H](C)C(=O)Nc3nncs3)s2)cc1 [Example 106, N-ethyl-4-(5-((1S,2S)-1-(3-fluorophenyl)-2-methyl-3-oxo-3-(1,3,4-thiadiazol-2-ylamino)propyl)-2-thienyl)-N-methylbenzamide] | 2.44 nM
CC(C)(C(=O)Nc1nncs1)C(c1ccccc1)c1ccc(-c2ccc(C(=O)N3CCC(F)(F)CC3)cc2)s1 (stereo not drawn) [Example 55, 3-(5-(4-((4,4-Difluoro-1-piperidinyl)carbonyl)phenyl)-2-thienyl)-2,2-dimethyl-3-phenyl-N-1,3,4-thiadiazol-2-ylpropanamide] | 36.8 nM
